Where two headings read alike, the source gives them in different places.
What was measured:
ABL1 = ABL1 (Homo sapiens (Human), UniProt P00519); test: Caliper Mobility Shift kinase inhibition test; type: biochemical; settings: 100 nM; read-out: inhibitory rate on ABL1
PDGFRα = PDGFRα (Homo sapiens (Human), UniProt P16234); test: Caliper Mobility Shift kinase inhibition test; type: biochemical; settings: for inhibition at 0.1 µM: 100 nM
FGFR2 = FGFR2 (Homo sapiens (Human), UniProt P21802); test: Caliper Mobility Shift kinase inhibition test; type: biochemical; settings: for inhibition at 0.1 µM: 100 nM
Summary of the method: (§1)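 Caliper microfluidic mobility-shift kinase assay in HEPES pH 7.5 buffer with MgCl2, DTT and Brij-35; % inhibition = (max−conversion)/(max−min)×100, max being DMSO control, min low control. IC50 from 10 dilutions, duplicate wells, repeated 3 times.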

JAK1 = JAK1 (Homo sapiens (Human), UniProt P23458); test: Caliper Mobility Shift kinase inhibition test; type: biochemical; settings: for inhibition at 0.1 µM: 100 nM
Chain of JAK1 (P23458 whole entry, species assumed): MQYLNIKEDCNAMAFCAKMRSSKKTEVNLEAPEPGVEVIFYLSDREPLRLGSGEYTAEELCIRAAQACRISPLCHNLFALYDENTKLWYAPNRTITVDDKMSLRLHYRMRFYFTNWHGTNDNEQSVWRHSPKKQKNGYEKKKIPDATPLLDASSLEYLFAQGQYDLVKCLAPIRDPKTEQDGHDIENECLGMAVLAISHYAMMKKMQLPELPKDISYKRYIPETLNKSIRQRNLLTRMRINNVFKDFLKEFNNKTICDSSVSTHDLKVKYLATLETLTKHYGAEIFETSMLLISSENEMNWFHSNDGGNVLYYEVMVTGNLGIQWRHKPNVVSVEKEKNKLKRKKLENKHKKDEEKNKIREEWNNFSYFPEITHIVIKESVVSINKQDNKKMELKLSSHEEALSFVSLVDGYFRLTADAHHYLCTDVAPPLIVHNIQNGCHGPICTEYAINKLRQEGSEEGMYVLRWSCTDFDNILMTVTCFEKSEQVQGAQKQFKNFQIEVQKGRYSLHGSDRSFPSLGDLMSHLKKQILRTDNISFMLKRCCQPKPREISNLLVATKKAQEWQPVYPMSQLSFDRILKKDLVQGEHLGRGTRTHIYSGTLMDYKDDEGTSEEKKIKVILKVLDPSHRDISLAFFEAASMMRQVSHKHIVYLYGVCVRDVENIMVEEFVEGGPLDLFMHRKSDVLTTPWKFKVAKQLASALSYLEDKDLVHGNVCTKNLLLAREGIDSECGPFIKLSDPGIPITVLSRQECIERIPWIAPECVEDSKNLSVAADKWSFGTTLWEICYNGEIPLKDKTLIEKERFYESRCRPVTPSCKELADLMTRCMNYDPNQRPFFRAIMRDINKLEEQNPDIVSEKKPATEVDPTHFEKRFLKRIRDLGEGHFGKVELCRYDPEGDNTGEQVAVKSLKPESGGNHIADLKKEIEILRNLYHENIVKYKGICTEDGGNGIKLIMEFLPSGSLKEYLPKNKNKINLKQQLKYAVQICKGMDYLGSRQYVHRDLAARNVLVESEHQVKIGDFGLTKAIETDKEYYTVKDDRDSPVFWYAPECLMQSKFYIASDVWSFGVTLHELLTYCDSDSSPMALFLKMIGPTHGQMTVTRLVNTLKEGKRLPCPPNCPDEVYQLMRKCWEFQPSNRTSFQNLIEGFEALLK
Summary of the method: as §1

PDGFRβ = PDGFRβ (Homo sapiens (Human), UniProt P09619); test: Caliper Mobility Shift kinase inhibition test; type: biochemical; settings: for inhibition at 0.1 µM: 100 nM
Chain of PDGFRβ (P09619 33-1106): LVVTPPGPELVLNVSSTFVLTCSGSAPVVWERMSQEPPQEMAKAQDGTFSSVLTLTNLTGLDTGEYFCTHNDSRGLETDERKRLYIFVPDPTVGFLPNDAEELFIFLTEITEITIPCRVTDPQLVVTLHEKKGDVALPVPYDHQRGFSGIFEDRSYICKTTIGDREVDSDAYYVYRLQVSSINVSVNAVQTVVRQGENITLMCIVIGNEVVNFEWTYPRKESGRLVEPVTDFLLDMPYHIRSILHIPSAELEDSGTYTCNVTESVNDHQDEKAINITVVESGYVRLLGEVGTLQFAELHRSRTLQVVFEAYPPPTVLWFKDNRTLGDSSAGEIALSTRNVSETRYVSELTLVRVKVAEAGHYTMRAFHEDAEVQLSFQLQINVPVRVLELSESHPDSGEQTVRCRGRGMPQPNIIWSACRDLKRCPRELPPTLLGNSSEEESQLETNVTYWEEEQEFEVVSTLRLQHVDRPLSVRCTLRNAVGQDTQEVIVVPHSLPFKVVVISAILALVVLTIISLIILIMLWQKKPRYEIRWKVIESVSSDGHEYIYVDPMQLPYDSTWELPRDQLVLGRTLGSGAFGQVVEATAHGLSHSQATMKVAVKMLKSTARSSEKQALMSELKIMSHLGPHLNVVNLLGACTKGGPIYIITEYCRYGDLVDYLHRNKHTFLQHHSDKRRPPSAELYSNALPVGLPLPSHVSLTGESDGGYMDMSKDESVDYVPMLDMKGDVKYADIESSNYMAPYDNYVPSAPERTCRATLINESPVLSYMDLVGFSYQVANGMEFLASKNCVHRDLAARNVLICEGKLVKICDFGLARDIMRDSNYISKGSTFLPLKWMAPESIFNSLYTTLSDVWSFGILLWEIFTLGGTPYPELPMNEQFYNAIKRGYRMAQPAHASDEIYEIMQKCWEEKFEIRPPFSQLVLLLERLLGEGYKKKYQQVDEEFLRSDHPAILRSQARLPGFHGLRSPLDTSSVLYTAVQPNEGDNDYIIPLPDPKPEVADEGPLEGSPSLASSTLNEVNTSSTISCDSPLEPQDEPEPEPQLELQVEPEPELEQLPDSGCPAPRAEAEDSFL
Summary of the method: as §1

EGFR L858R = EGFR L858R (Homo sapiens (Human), UniProt P00533, L858R); test: Kinase selectivity test; type: biochemical; settings: 100 nM
Chain of EGFR L858R (P00533 25-1210 L858R): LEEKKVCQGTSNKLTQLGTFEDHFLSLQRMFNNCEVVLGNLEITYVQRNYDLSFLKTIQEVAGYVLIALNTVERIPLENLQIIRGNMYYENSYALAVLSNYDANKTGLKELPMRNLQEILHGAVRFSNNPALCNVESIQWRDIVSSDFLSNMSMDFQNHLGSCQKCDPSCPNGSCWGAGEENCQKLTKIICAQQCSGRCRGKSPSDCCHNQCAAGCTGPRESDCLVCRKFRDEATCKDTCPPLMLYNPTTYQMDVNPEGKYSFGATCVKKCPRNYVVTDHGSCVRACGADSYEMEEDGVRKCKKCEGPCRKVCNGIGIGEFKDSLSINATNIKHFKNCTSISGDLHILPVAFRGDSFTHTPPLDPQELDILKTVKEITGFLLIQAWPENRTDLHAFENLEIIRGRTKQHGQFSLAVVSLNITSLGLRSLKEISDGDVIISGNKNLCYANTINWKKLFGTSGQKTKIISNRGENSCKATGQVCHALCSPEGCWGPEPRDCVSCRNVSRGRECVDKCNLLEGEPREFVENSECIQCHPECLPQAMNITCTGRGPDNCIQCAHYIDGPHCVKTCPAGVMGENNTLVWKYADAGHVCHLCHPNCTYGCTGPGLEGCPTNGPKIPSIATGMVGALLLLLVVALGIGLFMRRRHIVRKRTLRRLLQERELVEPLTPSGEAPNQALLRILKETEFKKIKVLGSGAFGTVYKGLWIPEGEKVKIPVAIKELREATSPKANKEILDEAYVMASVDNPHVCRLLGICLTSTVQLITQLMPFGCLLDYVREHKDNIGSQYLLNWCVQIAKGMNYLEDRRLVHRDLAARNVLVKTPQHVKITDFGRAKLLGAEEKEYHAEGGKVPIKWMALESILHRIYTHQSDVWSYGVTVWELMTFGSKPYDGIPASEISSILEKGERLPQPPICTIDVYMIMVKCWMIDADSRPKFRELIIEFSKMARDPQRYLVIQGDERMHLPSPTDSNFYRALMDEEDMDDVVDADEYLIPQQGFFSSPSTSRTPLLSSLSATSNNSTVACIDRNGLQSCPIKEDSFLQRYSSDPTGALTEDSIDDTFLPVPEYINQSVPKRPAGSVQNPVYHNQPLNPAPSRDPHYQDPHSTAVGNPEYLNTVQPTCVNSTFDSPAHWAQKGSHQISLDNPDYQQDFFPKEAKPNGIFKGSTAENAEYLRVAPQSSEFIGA
Method: (§2) The method adopted in the test was Caliper Mobility Shift Assay, which was a detection platform based on the mobility detection technology of microfluidic chip technology. Test steps: 1.25× kinase reaction buffer (62.5 mmol/L HEPES, pH 7.5; 0.001875% Brij-35; 12.5 mmol/L MgCl2; 2.5 mM DTT) and kinase reaction stop solution (100 mmol/L HEPES, pH 7.5; 0.015% Brij-35; 0.2% Coating Reagent #3) were configured. […] Collected data was tested on Caliper to yield that inhibition ratio to kinase activity=(max−conversion)/(max−min)×100. “max” was DMSO control without adding compound, and “min” was low control. When IC50 was determined, each sample was provided with 10 dilutions, each with 2 multiple holes, and repeated for 3 times.
(§3) According to the above-mentioned method for measuring kinase inhibitory activity, the inhibitory activity of the active compounds on other multiple kinases was measured to characterize the kinase selectivity of active inhibitors.

FGFR1 = FGFR1 (Homo sapiens (Human), UniProt P11362); test: Kinase selectivity test; type: biochemical; settings: 100 nM
Method: as §2, §3

FGFR3 = FGFR3 (Homo sapiens (Human), UniProt P22607); test: Kinase selectivity test; type: biochemical; settings: 100 nM
Chain of FGFR3 (P22607 23-806, species assumed): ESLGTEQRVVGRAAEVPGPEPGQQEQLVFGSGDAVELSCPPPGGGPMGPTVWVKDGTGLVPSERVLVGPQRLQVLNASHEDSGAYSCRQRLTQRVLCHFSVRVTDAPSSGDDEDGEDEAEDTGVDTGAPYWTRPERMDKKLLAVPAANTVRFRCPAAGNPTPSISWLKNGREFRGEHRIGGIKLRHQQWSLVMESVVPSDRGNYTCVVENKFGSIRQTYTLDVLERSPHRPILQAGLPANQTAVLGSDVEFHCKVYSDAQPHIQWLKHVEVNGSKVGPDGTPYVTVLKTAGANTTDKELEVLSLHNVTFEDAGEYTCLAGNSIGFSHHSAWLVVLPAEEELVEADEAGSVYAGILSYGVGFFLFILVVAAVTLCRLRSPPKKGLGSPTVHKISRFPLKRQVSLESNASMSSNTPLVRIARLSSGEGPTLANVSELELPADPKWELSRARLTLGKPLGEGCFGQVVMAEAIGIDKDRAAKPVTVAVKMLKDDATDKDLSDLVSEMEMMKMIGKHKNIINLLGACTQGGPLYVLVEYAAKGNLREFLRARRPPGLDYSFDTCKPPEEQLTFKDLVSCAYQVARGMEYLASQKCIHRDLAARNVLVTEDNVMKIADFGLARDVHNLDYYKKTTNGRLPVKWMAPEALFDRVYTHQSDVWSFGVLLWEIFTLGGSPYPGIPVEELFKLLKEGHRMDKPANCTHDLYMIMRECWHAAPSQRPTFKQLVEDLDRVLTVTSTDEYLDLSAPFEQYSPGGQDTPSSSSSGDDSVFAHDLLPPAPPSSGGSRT
Method: as §2, §3

FLT1 = FLT1 (Homo sapiens (Human), UniProt P17948); test: Kinase selectivity test; type: biochemical; settings: 100 nM
Method: as §2, §3

SRC = SRC (Homo sapiens (Human), UniProt P12931); test: Kinase selectivity test; type: biochemical; settings: 100 nM
Chain of SRC (P12931 whole entry, looked up, species assumed): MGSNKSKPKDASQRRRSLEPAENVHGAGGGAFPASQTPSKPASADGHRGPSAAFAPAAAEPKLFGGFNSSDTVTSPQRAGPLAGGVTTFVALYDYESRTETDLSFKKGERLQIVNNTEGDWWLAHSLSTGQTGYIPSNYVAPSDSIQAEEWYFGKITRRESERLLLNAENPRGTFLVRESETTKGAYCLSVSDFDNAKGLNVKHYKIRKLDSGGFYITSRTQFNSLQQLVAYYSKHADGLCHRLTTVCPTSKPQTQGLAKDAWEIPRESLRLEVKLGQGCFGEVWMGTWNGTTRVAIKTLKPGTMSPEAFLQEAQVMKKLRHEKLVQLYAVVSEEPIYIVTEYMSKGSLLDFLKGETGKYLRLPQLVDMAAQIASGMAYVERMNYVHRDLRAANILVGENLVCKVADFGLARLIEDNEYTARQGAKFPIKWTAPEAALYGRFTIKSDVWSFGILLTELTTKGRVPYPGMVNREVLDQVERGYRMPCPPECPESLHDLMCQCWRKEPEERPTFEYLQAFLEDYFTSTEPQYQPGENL
Method: as §2, §3

osteosarcoma cells MG63 = test: Metastasis (scratch migration) test of osteosarcoma cells; type: cell-based; settings: 0.1, 0.2 and 0.4 uM, compared with positive drugs
Method: (§4) The cells were washed with sterile PBS for three times, and basal medium containing 2.5 μL of TCS was added respectively. Photographs were taken at 0 hour, 24 hours and 48 hours under an inverted microscope, and migration distances were measured with Imag J software.

osteosarcoma cells MNNG = test: as above; type: cell-based; settings: 0.1, 0.2 and 0.4 uM, compared with positive drugs
Method: as §4

CCN1CCN(c2ccc(Nc3ncc(C)c(Nc4ccc5cn[nH]c5c4)n3)cc2OC)CC1 [Compound 6i, N^2-(4-(4-ethylpiperazine-1-yl)-3-methoxyphenyl)-N^4-(1H-indazol-6-yl)-5-methylpyrimidine-2,4-diamine]
inhibition at 0.1 µM (ABL1): 95.3%
inhibitory activity on PDGFRα (in words) (PDGFRα): significant inhibitory activities
inhibition at 0.1 µM (PDGFRα; average, read-out: Average % inhibition PDGFR α): > 100%
inhibition at 0.1 µM (PDGFRα; replicate 1, read-out: % inhibition 1 PDGFR α): 98.9%
inhibition at 0.1 µM (PDGFRα; replicate 2, read-out: % inhibition 2 PDGFR α): 103%
inhibition at 0.1 µM (PDGFRα; read-out: inhibitory rate on PDGFR-α): 97.5%
IC50 (PDGFRα; read-out: IC50 PDGFR-α): 2.7 nM
IC50 (FGFR2): 27 nM
inhibition at 0.1 µM (FGFR2; average, read-out: Average % inhibition FGFR2): 83%
inhibition at 0.1 µM (FGFR2; replicate 1, read-out: % inhibition 1 FGFR2): 83.8%
inhibition at 0.1 µM (FGFR2; replicate 2, read-out: % inhibition 2 FGFR2): 82.1%
IC50 (JAK1): 7.7 nM
inhibition at 0.1 µM (JAK1; average, read-out: Average % inhibition JAK1): 90.5%
inhibition at 0.1 µM (JAK1; replicate 1, read-out: % inhibition 1 JAK1): 91.7%
inhibition at 0.1 µM (JAK1; replicate 2, read-out: % inhibition 2 JAK1): 89.3%
inhibitory activity on PDGFRβ (in words) (PDGFRβ): significant inhibitory activities
inhibition at 0.1 µM (PDGFRβ; average, read-out: Average % inhibition PDGFR β): > 100%
inhibition at 0.1 µM (PDGFRβ; replicate 1, read-out: % inhibition 1 PDGFR β): 101%
inhibition at 0.1 µM (PDGFRβ; replicate 2, read-out: % inhibition 2 PDGFR β): 103%
inhibition at 0.1 µM (PDGFRβ; read-out: inhibitory rate on PDGFR-β): 99.8%
IC50 (PDGFRβ; read-out: IC50 PDGFR-β): 1.7 nM
inhibition at 0.1 µM (EGFR L858R; average, read-out: Average % inhibition EGFR L858R): 62.1%
inhibition at 0.1 µM (EGFR L858R; replicate 1, read-out: % inhibition 1 EGFR L858R): 61.7%
inhibition at 0.1 µM (EGFR L858R; replicate 2, read-out: % inhibition 2 EGFR L858R): 62.6%
inhibition at 0.1 µM (FGFR1; average, read-out: Average % inhibition FGFR1): 65.8%
inhibition at 0.1 µM (FGFR1; replicate 1, read-out: % inhibition 1 FGFR1): 65%
inhibition at 0.1 µM (FGFR1; replicate 2, read-out: % inhibition 2 FGFR1): 66.6%
inhibition at 0.1 µM (FGFR3; average, read-out: Average % inhibition FGFR3): 10.9%
inhibition at 0.1 µM (FGFR3; replicate 1, read-out: % inhibition 1 FGFR3): 8.1%
inhibition at 0.1 µM (FGFR3; replicate 2, read-out: % inhibition 2 FGFR3): 13.7%
inhibition at 0.1 µM (FLT1; average, read-out: Average % inhibition FLT1): 79.7%
inhibition at 0.1 µM (FLT1; replicate 1, read-out: % inhibition 1 FLT1): 78.7%
inhibition at 0.1 µM (FLT1; replicate 2, read-out: % inhibition 2 FLT1): 80.7%
inhibition at 0.1 µM (SRC; average, read-out: Average % inhibition SRC): 92.2%
inhibition at 0.1 µM (SRC; replicate 1, read-out: % inhibition 1 SRC): 91%
inhibition at 0.1 µM (SRC; replicate 2, read-out: % inhibition 2 SRC): 93.5%
inhibitory activity on metastasis (osteosarcoma cells MG63): strong dose-dependent inhibitory activity
inhibitory activity on metastasis (osteosarcoma cells MNNG): strong dose-dependent inhibitory activity

From patent publication US20230312529A1, “PYRIMIDINE SMALL-MOLECULE COMPOUND AND APPLICATION THEREOF” (WENZHOU MEDICAL UNIVERSITY, priority 2021, published 2023)
